# Assay results taken from US4325949A, “Combinations of agents which give enhanced anti-inflammatory activity” (American Cyanamid Company, priority 1980, dated 1982).
# “And” between values parts separate entries of the source, which are not always exact repeats. Equal values may be shown once.
# Assays:
# [1] = test system: adjuvant induced arthritis; test: adjuvant induced arthritis test in the rat (primary and secondary lesions); type: in vivo, rat (Royal Hart, Wistar strain)
# Experimental: (§1) Groups of three Royal Hart, Wistar strain rats, weighing 200±10 g. each were injected intradermally in the right hind paw with Freund's adjuvant (dried human tubercle bacilli in a mineral oil vehicle) at a dose of 2 mg./kg. of body weight. Test compositions were administered orally in a 1.5% starch vehicle at various doses once daily on days 0 through 13 post challenge. Control rats were treated in a similar manner, but given only starch vehicle. On the 14th, 21st, 28th and 35th days post challenge the diameter of the injected paw (primary lesion) was measured by micrometer caliper. The volume of inflamed paws were estimated from these measurements and the results are expressed as percent inhibition of swelling as compared to controls. At the same time, the other inflamed sites, such as ears, paws and tail (secondary lesions) were observed and each rat was graded as to degree of inflammation and swelling present. The grading is based on a scale of 0 to 24, where 0 represents a complete absence of induced arthritic modules and 24 represents the maximum degree of inflammation. The mean grade for each treated group is calculated and the effects of each test compound are expressed as percent inhibition of the control grade. The following Tables I-V record the results of tests conducted with the compositions of this invention and conventional anti-inflammatory agents both separately and in combination. All tests were replicated several times. Each treatment group represents a total of 18 rats. Each challenged control group comprised 36 rats and each unchallenged control group was 9 rats.
# [2] = body weight gain in the adjuvant induced arthritis test in the rat; type: in vivo, rat (Royal Hart, Wistar strain)
# Experimental: as §1
# arthritic paw swelling = conditions: S. Wong et al. 1973; G. R. Bobalick et al. 1974; cited from earlier work
# [3] = oral 5 mg/kg once daily, day 14
# [4] = oral 5 mg/kg once daily, day 21
# [5] = oral 5 mg/kg once daily, day 28
# [6] = oral 5 mg/kg once daily, day 35
# [7] = oral 10 mg/kg once daily, day 14
# [8] = oral 10 mg/kg once daily, day 21
# [9] = oral 10 mg/kg once daily, day 28
# [10] = oral 10 mg/kg once daily, day 35
# [11] = oral 12.5 mg/kg once daily, day 14, 12.5 mg/kg
# [12] = oral 12.5 mg/kg once daily, day 21, 12.5 mg/kg
# [13] = oral 12.5 mg/kg once daily, day 28
# [14] = oral 12.5 mg/kg once daily, day 35, 12.5 mg/kg
# [15] = oral 25 mg/kg once daily, day 14, 25 mg/kg
# [16] = oral 25 mg/kg once daily, day 21, 25 mg/kg
# [17] = oral 25 mg/kg once daily, day 28, 25 mg/kg
# [18] = oral 25 mg/kg once daily, day 35, 25 mg/kg
# [19] = oral 50 mg/kg once daily, day 14
# [20] = oral 50 mg/kg once daily, day 21
# [21] = oral 100 mg/kg once daily, day 14
# [22] = oral 100 mg/kg once daily, day 21
# [23] = oral 50 mg/kg once daily, day 35
# [24] = oral 100 mg/kg once daily, day 21, 100 mg/kg
# [25] = oral 0.25 mg/kg once daily, day 14, 0.25 mg/kg
# [26] = oral 0.5 mg/kg once daily, day 14, 0.5 mg/kg
# [27] = oral 0.5 mg/kg once daily, day 21, 0.5 mg/kg
# [28] = oral 1.0 mg/kg once daily, day 14, 1 mg/kg
# [29] = oral 1.0 mg/kg once daily, day 21, 1 mg/kg
# [30] = oral 25 mg/kg once daily, day 14
# [31] = oral 25 mg/kg once daily, day 21
# [32] = oral 50 mg/kg once daily, day 28
# [33] = oral 25 mg/kg once daily, day 28
# [34] = oral 25 mg/kg once daily, day 35
smiles,measurement,setting,value
"C[C@]12C=CC(=O)C=C1CC[C@@H]1[C@@H]2[C@@H](O)C[C@@]2(C)[C@H]1CC[C@]2(O)C(=O)CO [Prednisolone, reference compound]",Primary Lesions (% Inhibition),[1]; [3],63%
same,Secondary Lesions (% Inhibition),[1]; [3],45%
same,Primary Lesions (% Inhibition),[1]; [4],24%
same,Secondary Lesions (% Inhibition),[1]; [4],16%
same,Primary Lesions (% Inhibition),[1]; [5],17%
same,Secondary Lesions (% Inhibition),[1]; [5],5%
same,Primary Lesions (% Inhibition),[1]; [6],11%
same,Secondary Lesions (% Inhibition),[1]; [6],20%
same,Primary Lesions (% Inhibition),[1]; [7],57%
same,Secondary Lesions (% Inhibition),[1]; [7],55%
same,Primary Lesions (% Inhibition),[1]; [8],24%
same,Secondary Lesions (% Inhibition),[1]; [8],21%
same,Primary Lesions (% Inhibition),[1]; [9],14%
same,Secondary Lesions (% Inhibition),[1]; [9],3%
same,Primary Lesions (% Inhibition),[1]; [10],13%
same,Secondary Lesions (% Inhibition),[1]; [10],17%
same,Body Weight Gain in Grams,[2]; [3],22 Grams
same,Body Weight Gain in Grams,[2]; [4],26 Grams
same,Body Weight Gain in Grams,[2]; [5],44 Grams
same,Body Weight Gain in Grams,[2]; [6],71 Grams
same,Body Weight Gain in Grams,[2]; [7],23 Grams
same,Body Weight Gain in Grams,[2]; [8],47 Grams
same,Body Weight Gain in Grams,[2]; [9],75 Grams
same,Body Weight Gain in Grams,[2]; [10],95 Grams
N#CCC(=O)c1ccccc1 [Benzoylacetonitrile],Primary Lesions (% Inhibition),[1]; [11],44% and 49%
same,Secondary Lesions (% Inhibition),[1]; [11],45% and 59%
same,Primary Lesions (% Inhibition),[1]; [12],16% and 32%
same,Secondary Lesions (% Inhibition),[1]; [13],25%
same,Secondary Lesions (% Inhibition),[1]; [14],22% and 26%
same,Primary Lesions (% Inhibition),[1]; [15],60% and 62% and 36%
same,Secondary Lesions (% Inhibition),[1]; [15],70% and 62% and 50%
same,Primary Lesions (% Inhibition),[1]; [16],36% and 38% and 24%
same,Secondary Lesions (% Inhibition),[1]; [17],20% and 19%
same,Secondary Lesions (% Inhibition),[1]; [18],38% and 20%
same,Primary Lesions (% Inhibition),[1]; [19],60%
same,Secondary Lesions (% Inhibition),[1]; [19],66%
same,Primary Lesions (% Inhibition),[1]; [20],45%
same,Secondary Lesions (% Inhibition),[1]; [20],43%
same,Primary Lesions (% Inhibition),[1]; [21],55%
same,Secondary Lesions (% Inhibition),[1]; [21],76%
same,Primary Lesions (% Inhibition),[1]; [22],54%
same,Secondary Lesions (% Inhibition),[1]; [22],56%
same,Body Weight Gain in Grams,[2]; [11],57 Grams and 49 Grams
same,Body Weight Gain in Grams,[2]; [12],53 Grams and 38 Grams
same,Body Weight Gain in Grams,[2]; [13],55 Grams
same,Body Weight Gain in Grams,[2]; [14],81 Grams and 68 Grams
same,Body Weight Gain in Grams,[2]; [15],52 Grams and 47 Grams and 57 Grams
same,Body Weight Gain in Grams,[2]; [16],52 Grams and 47 Grams and 57 Grams
same,Body Weight Gain in Grams,[2]; [17],75 Grams and 51 Grams
same,Body Weight Gain in Grams,[2]; [18],86 Grams and 69 Grams
same,Body Weight Gain in Grams,[2]; [19],58 Grams
same,Body Weight Gain in Grams,[2]; [20],62 Grams
same,Body Weight Gain in Grams,[2]; [21],56 Grams
same,Body Weight Gain in Grams,[2]; [22],79 Grams
"CC(=O)Oc1ccccc1C(=O)O [Aspirin, 2-(acetyloxy)benzoic acid, reference compound]",Primary Lesions (% Inhibition),"[1]; oral 50 mg/kg once daily, day 14, 50 mg/kg",21% and 16%
same,Secondary Lesions (% Inhibition),"[1]; oral 50 mg/kg once daily, day 21, 50 mg/kg",12% and 10%
same,Secondary Lesions (% Inhibition),"[1]; oral 50 mg/kg once daily, day 28, 50 mg/kg",31% and 20%
same,Primary Lesions (% Inhibition),[1]; [23],0%
same,Primary Lesions (% Inhibition),[1]; [24],8% and 2%
same,Primary Lesions (% Inhibition),"[1]; oral 100 mg/kg once daily, day 35, 100 mg/kg",5% and 1%
same,Body Weight Gain in Grams,"[2]; oral 100 mg/kg once daily, day 14, 100 mg/kg",45 Grams and 47 Grams
same,Body Weight Gain in Grams,[2]; [24],42 Grams and 46 Grams
same,Body Weight Gain in Grams,"[2]; oral 100 mg/kg once daily, day 28, 100 mg/kg",44 Grams and 57 Grams
"COc1ccc2c(c1)c(CC(=O)O)c(C)n2C(=O)c1ccc(Cl)cc1 [Indomethacin, 1-(4-chlorobenzoyl)-5-methoxy-2-methyl-1H-indole-3-acetic acid, reference compound]",Primary Lesions (% Inhibition),[1]; [25],29% and 44%
same,Secondary Lesions (% Inhibition),[1]; [25],22% and 25%
same,Primary Lesions (% Inhibition),[1]; [26],50% and 41%
same,Primary Lesions (% Inhibition),"[1]; oral 0.5 mg/kg once daily, day 21",8%
same,Secondary Lesions (% Inhibition),[1]; [27],10% and 3%
same,Primary Lesions (% Inhibition),[1]; [28],63% and 57%
same,Secondary Lesions (% Inhibition),[1]; [28],54% and 48%
same,Primary Lesions (% Inhibition),[1]; [29],27% and 24%
same,Secondary Lesions (% Inhibition),[1]; [29],30% and 27%
same,Body Weight Gain in Grams,[2]; [25],59 Grams and 43 Grams
same,Body Weight Gain in Grams,"[2]; oral 0.25 mg/kg once daily, day 21, 0.25 mg/kg",45 Grams and 46 Grams
same,Body Weight Gain in Grams,[2]; [26],71 Grams and 61 Grams
same,Body Weight Gain in Grams,[2]; [27],57 Grams and 51 Grams
same,Body Weight Gain in Grams,[2]; [28],92 Grams and 76 Grams
same,Body Weight Gain in Grams,[2]; [29],84 Grams and 70 Grams
same,arthritic paw swelling,arthritic paw swelling,inhibit arthritic paw swelling
same,joint and bone deterioration,arthritic paw swelling,prevent joint and bone deterioration
N#CCC(=N)c1ccccc1 [Benzimidoylacetonitrile],Primary Lesions (% Inhibition),[1]; [30],56%
same,Secondary Lesions (% Inhibition),[1]; [30],63%
same,Primary Lesions (% Inhibition),[1]; [31],33%
same,Secondary Lesions (% Inhibition),[1]; [31],24%
same,Primary Lesions (% Inhibition),[1]; [19],68%
same,Secondary Lesions (% Inhibition),[1]; [19],70%
same,Primary Lesions (% Inhibition),[1]; [20],58%
same,Secondary Lesions (% Inhibition),[1]; [20],43%
same,Primary Lesions (% Inhibition),[1]; [21],68%
same,Secondary Lesions (% Inhibition),[1]; [21],75%
same,Primary Lesions (% Inhibition),[1]; [22],55%
same,Secondary Lesions (% Inhibition),[1]; [22],34%
same,Body Weight Gain in Grams,[2]; [30],72 Grams
same,Body Weight Gain in Grams,[2]; [31],66 Grams
same,Body Weight Gain in Grams,[2]; [19],77 Grams
same,Body Weight Gain in Grams,[2]; [20],80 Grams
same,Body Weight Gain in Grams,[2]; [21],70 Grams
same,Body Weight Gain in Grams,[2]; [22],88 Grams
N#CC=C(N)c1cccs1 [β-Amino-2-thiopheneacrylonitrile],Primary Lesions (% Inhibition),[1]; [19],16%
same,Secondary Lesions (% Inhibition),[1]; [19],13%
same,Primary Lesions (% Inhibition),[1]; [20],14%
same,Secondary Lesions (% Inhibition),[1]; [20],0%
same,Primary Lesions (% Inhibition),[1]; [32],6%
same,Secondary Lesions (% Inhibition),[1]; [32],4%
same,Primary Lesions (% Inhibition),[1]; [23],1%
same,Secondary Lesions (% Inhibition),[1]; [23],11%
same,Body Weight Gain in Grams,[2]; [19],63 Grams
same,Body Weight Gain in Grams,[2]; [20],66 Grams
same,Body Weight Gain in Grams,[2]; [32],76 Grams
same,Body Weight Gain in Grams,[2]; [23],108 Grams
N#CCC(=O)c1ccc(F)cc1 [(p-Fluorobenzoyl)-acetonitrile],Primary Lesions (% Inhibition),[1]; [30],30%
same,Secondary Lesions (% Inhibition),[1]; [30],23%
same,Primary Lesions (% Inhibition),[1]; [31],17%
same,Secondary Lesions (% Inhibition),[1]; [31],0%
same,Primary Lesions (% Inhibition),[1]; [33],0%
same,Secondary Lesions (% Inhibition),[1]; [33],0%
same,Primary Lesions (% Inhibition),[1]; [34],6%
same,Secondary Lesions (% Inhibition),[1]; [34],7%
same,Primary Lesions (% Inhibition),[1]; [19],53%
same,Secondary Lesions (% Inhibition),[1]; [19],34%
same,Primary Lesions (% Inhibition),[1]; [20],32%
same,Secondary Lesions (% Inhibition),[1]; [20],10%
same,Primary Lesions (% Inhibition),[1]; [32],27%
same,Secondary Lesions (% Inhibition),[1]; [32],28%
same,Primary Lesions (% Inhibition),[1]; [23],22%
same,Secondary Lesions (% Inhibition),[1]; [23],19%
same,Body Weight Gain in Grams,[2]; [30],71 Grams
same,Body Weight Gain in Grams,[2]; [31],65 Grams
same,Body Weight Gain in Grams,[2]; [33],80 Grams
same,Body Weight Gain in Grams,[2]; [34],111 Grams
same,Body Weight Gain in Grams,[2]; [19],75 Grams
same,Body Weight Gain in Grams,[2]; [20],77 Grams
same,Body Weight Gain in Grams,[2]; [32],93 Grams
same,Body Weight Gain in Grams,[2]; [23],125 Grams
